For this test, the target named is Histone deacetylase 2 (Homo sapiens, UniProt Q92769). Description: Inhibition of full-length recombinant human C-terminal GST tagged HDAC2 expressed in Sf9 insect cells using aminoluciferin peptide substrate at 100 nM preincubated for 3 hrs followed by substrate addition and measured after 30 mins by HDAC-Glo I/II chemiluminescence assay. The following applies: time 3.5 hrs.
Sequence of Histone deacetylase 2 (Q92769 whole entry): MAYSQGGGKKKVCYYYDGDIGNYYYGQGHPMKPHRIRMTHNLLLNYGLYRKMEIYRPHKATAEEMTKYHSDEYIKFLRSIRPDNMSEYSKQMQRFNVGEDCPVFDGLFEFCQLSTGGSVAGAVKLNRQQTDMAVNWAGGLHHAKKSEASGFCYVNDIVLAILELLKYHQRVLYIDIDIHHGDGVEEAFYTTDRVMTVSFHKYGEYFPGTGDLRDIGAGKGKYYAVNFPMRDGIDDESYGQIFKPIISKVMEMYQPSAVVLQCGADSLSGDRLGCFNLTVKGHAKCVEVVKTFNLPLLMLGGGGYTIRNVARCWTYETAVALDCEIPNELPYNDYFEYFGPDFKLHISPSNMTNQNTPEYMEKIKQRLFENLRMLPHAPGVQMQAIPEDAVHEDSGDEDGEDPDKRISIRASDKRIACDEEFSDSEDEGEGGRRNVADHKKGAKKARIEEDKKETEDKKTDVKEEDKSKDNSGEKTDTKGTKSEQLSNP
The inhibition is how much of the control response was suppressed. For the molecule `Nc1ccc(-c2cccs2)cc1NC(=O)c1ccc(-c2cn(CCC3CCCC3)nn2)cc1`, the inhibition is 0%. The figure for `Nc1ccc(-c2ccsc2)cc1NC(=O)c1cn(CCc2cccc3ccccc23)nn1` is 0%; for `Nc1ccc(-c2cccnc2)cc1NC(=O)CCc1cn(CCCCC(=O)O)nn1` it is 0%; for `Nc1ccc(-c2ccc(F)cc2)cc1NC(=O)CCc1cn(Cc2ccc(C(=O)O)cc2)nn1` it is 39%. On to `Cc1ccc(CCn2cc(C(=O)Nc3cc(-c4ccc(F)cc4)ccc3N)nn2)cc1`, for which the inhibition was 7%. For the molecule `Nc1ccc(-c2cccs2)cc1NC(=O)c1cn(CC(=O)Nc2ccc(F)cc2)nn1`, the inhibition stood at 0%.

Consider `Nc1ccc(-c2ccc(F)cc2)cc1NC(=O)c1cn(CCc2ccc(Cl)cc2)nn1`, for which the inhibition turned out to be 0%. As to `Nc1ccc(-c2cccs2)cc1NC(=O)c1ccc(-c2cn(-c3ccc(O)cc3)nn2)s1`, the inhibition was found to be 20%. As to `Nc1ccc(-c2ccccc2)cc1NC(=O)c1cn(Cc2ccc(C(=O)O)cc2)nn1`, the inhibition was 27%. For `Nc1ccc(-c2cccs2)cc1NC(=O)c1ccc(-c2cn(CCc3cccc4ccccc34)nn2)cc1`, the inhibition came to 0%.

As for `Nc1ccc(-c2cccs2)cc1NC(=O)c1ccc(-c2cn(CCCCCCC(=O)O)nn2)cc1`, the inhibition was determined as 0%. For the molecule `Nc1ccc(-c2cccs2)cc1NC(=O)c1ccc(-c2cn(CCc3ccc(Cl)cc3)nn2)cc1`, the inhibition is 18%. As to `COc1ccc(Cn2cc(C(=O)Nc3cc(-c4ccccc4)ccc3N)nn2)cc1`, the inhibition came out at 6%. With `Nc1ccc(-c2ccsc2)cc1NC(=O)c1cn(-c2cccc3ccccc23)nn1`, the inhibition worked out at 0%. The figure for `Nc1ccc(-c2ccsc2)cc1NC(=O)c1cn(Cc2ccc(-c3ccccc3)cc2)nn1` is 0%; for `Nc1ccc(-c2ccccc2)cc1NC(=O)CCc1cn(C[S+]([O-])c2ccccc2)nn1` (centres undefined) it is 8%; for `COc1ccc(Cn2cc(-c3ccc(C(=O)Nc4cc(-c5cccs5)ccc4N)s3)nn2)cc1` it is 27%. In the case of `Nc1ccc(-c2cccs2)cc1NC(=O)CCc1cn(CCc2ccc(C(=O)O)cc2)nn1`, the inhibition is 35%.

As for `Nc1ccc(-c2cccs2)cc1NC(=O)c1ccc(-c2cn(-c3ccccc3-c3ccccc3)nn2)s1`, the inhibition was 0%. `Nc1ccc(-c2ccsc2)cc1NC(=O)CCc1cn(Cc2ccc3ccccc3c2)nn1`: the inhibition was 16%. Consider `Nc1ccc(-c2cccnc2)cc1NC(=O)CCc1cn(CCC2CCCC2)nn1`, for which the inhibition amounted to 0%. Take `Nc1ccc(-c2cccs2)cc1NC(=O)c1cccc(-c2cn(CCc3cccc4ccccc34)nn2)c1`: the inhibition was 0%. As for `Nc1ccc(-c2ccc(F)cc2)cc1NC(=O)c1cn(C[S+]([O-])c2ccccc2)nn1` (centres undefined), the inhibition is 0%. As for `Nc1ccc(-c2ccccc2)cc1NC(=O)CCc1cn(-c2ccc(Br)cc2)nn1`, the inhibition was 0%.

As to `Cc1ccccc1CCn1cc(C(=O)Nc2cc(-c3ccccc3)ccc2N)nn1`, the inhibition amounted to 0%.

As to `Nc1ccc(-c2ccc(F)cc2)cc1NC(=O)CCc1cn(CCc2ccc(F)cc2)nn1`, the inhibition is 17%.

With `Nc1ccc(-c2ccsc2)cc1NC(=O)c1cn(Cc2cc3ccccc3s2)nn1`, the inhibition is 0%. On to `Nc1ccc(-c2ccc(F)cc2)cc1NC(=O)c1cn(CCC2CCCC2)nn1`, for which the inhibition is 0%.

Take `Nc1ccc(-c2cccs2)cc1NC(=O)c1ccc(-c2cn(CS(=O)(=O)c3ccccc3)nn2)s1`: the inhibition was 44%. As to `Nc1ccc(-n2cc(CCC(=O)Nc3cc(-c4ccsc4)ccc3N)nn2)cc1`, the inhibition came out at 24%. Turning to `Nc1ccc(-c2ccccc2)cc1NC(=O)CCc1cn(CCCCCC(=O)O)nn1`, the inhibition came out at 0%.

Consider `Nc1ccc(-c2ccccc2)cc1NC(=O)c1cn(CCc2cccc3ccccc23)nn1`, for which the inhibition is 0%. As for `CCc1ccc(Cn2cc(CCC(=O)Nc3cc(-c4ccc(F)cc4)ccc3N)nn2)cc1`, the inhibition was 2%. For the molecule `Nc1ccc(-c2ccc(F)cc2)cc1NC(=O)c1cn(CCc2c[nH]c3ccccc23)nn1`, the inhibition was 5%. The figure for `Nc1ccc(-c2cccs2)cc1NC(=O)c1cccc(-c2cn(Cc3ccc(OC(F)(F)F)cc3)nn2)c1` is 0%. For the molecule `COc1ccccc1CCn1cc(CCC(=O)Nc2cc(-c3cccnc3)ccc2N)nn1`, the inhibition came out at 10%.

`Nc1ccc(-c2cccs2)cc1NC(=O)CCc1cn(CCC23CC4CC(CC(C4)C2)C3)nn1`: the inhibition was 5%. The figure for `Nc1ccc(-c2ccc(F)cc2)cc1NC(=O)CCc1cn(CCc2ccccc2Cl)nn1` is 4%; for `Nc1ccc(-c2cccs2)cc1NC(=O)c1ccc(-c2cn(Cc3nc4ccccc4[nH]3)nn2)cc1` it is 37%.

In the case of `Nc1ccc(-c2ccccc2)cc1NC(=O)CCc1cn(Cc2ccc(Oc3ccccc3)cc2)nn1`, the inhibition was 0%. The figure for `Nc1ccc(-c2cccs2)cc1NC(=O)CCc1cn(CCc2ccccc2Cl)nn1` is 5%. Turning to `Nc1ccc(-c2cccs2)cc1NC(=O)c1ccc(-c2cn(Cc3cc4ccccc4s3)nn2)cc1`, the inhibition was found to be 0%. Regarding `COc1ccc(CCn2cc(CCC(=O)Nc3cc(-c4cccs4)ccc3N)nn2)cc1`, the inhibition was found to be 21%. Regarding `Nc1ccc(-c2cccs2)cc1NC(=O)c1ccc(-c2cn(CCc3ccc([N+](=O)[O-])cc3)nn2)s1`, the inhibition was determined as 23%.

Regarding `Cc1ccc(CCn2cc(CCC(=O)Nc3cc(-c4cccs4)ccc3N)nn2)cc1`, the inhibition is 30%. Consider `Cc1ccc(-n2cc(-c3ccc(C(=O)Nc4cc(-c5cccs5)ccc4N)cc3)nn2)cc1C`, for which the inhibition was found to be 0%. Take `Cc1ccc(CCn2cc(CCC(=O)Nc3cc(-c4ccsc4)ccc3N)nn2)cc1`: the inhibition amounted to 24%. In the case of `Nc1ccc(-c2ccccc2)cc1NC(=O)c1cn(CCCCCc2ccccc2)nn1`, the inhibition amounted to 0%.

With `Nc1ccc(-c2cccs2)cc1NC(=O)CCc1cn(CCc2cccc(Cl)c2)nn1`, the inhibition is 9%. Turning to `Nc1ccc(-c2ccc(F)cc2)cc1NC(=O)CCc1cn(CCC23CC4CC(CC(C4)C2)C3)nn1`, the inhibition is 0%. With `Nc1ccc(-c2ccc(F)cc2)cc1NC(=O)CCc1cn(CCc2ccc(C(F)(F)F)cc2)nn1`, the inhibition was determined as 1%. Regarding `Nc1ccc(-c2ccc(F)cc2)cc1NC(=O)CCc1cn(CCc2ccc(C(=O)O)cc2)nn1`, the inhibition came to 33%.

In the case of `Nc1ccc(-c2ccsc2)cc1NC(=O)c1cn(CC(=O)c2ccccc2)nn1`, the inhibition came to 0%. Regarding `Nc1ccc(-c2ccc(F)cc2)cc1NC(=O)CCc1cn(Cc2cccc(C(=O)O)c2)nn1`, the inhibition amounted to 0%. Regarding `Nc1ccc(-c2cccnc2)cc1NC(=O)CCc1cn(CCc2cccc3ccccc23)nn1`, the inhibition is 13%. As to `Cc1csc(CCn2cc(CCC(=O)Nc3cc(-c4ccccc4)ccc3N)nn2)n1`, the inhibition amounted to 29%. Regarding `Cc1ccc(-n2cc(CCC(=O)Nc3cc(-c4ccsc4)ccc3N)nn2)cc1C`, the inhibition was determined as 0%. In the case of `COc1ccc(Cn2cc(CCC(=O)Nc3cc(-c4ccsc4)ccc3N)nn2)cc1`, the inhibition was 24%. On to `Cc1cccc(C)c1NC(=O)Cn1cc(-c2cccc(C(=O)Nc3cc(-c4cccs4)ccc3N)c2)nn1`, for which the inhibition is 8%.

Consider `Cc1cccc(CCn2cc(CCC(=O)Nc3cc(-c4ccsc4)ccc3N)nn2)c1`, for which the inhibition was 26%. Regarding `Nc1ccc(-c2ccsc2)cc1NC(=O)CCc1cn(CCc2cccc(Cl)c2)nn1`, the inhibition was 15%. With `Nc1ccc(-c2ccccc2)cc1NC(=O)CCc1cn(CCc2cccc(Cl)c2)nn1`, the inhibition turned out to be 1%.

`Cc1ccccc1CCn1cc(CCC(=O)Nc2cc(-c3cccs3)ccc2N)nn1`: the inhibition came out at 13%. As to `Nc1ccc(-c2cccs2)cc1NC(=O)CCc1cn(-c2ccc(I)cc2)nn1`, the inhibition is 8%.

For the molecule `Nc1ccc(-c2ccsc2)cc1NC(=O)c1cn(/C=C/c2ccccc2)nn1`, the inhibition was 5%. The figure for `Nc1ccc(-c2ccccc2)cc1NC(=O)CCc1cn(Cc2ccc3ccccc3c2)nn1` is 11%; for `Nc1ccc(-c2ccsc2)cc1NC(=O)c1cn(CCc2cccc(Cl)c2)nn1` it is 0%.

Regarding `Nc1ccc(-c2cccs2)cc1NC(=O)c1ccc(-c2cn(CC(=O)c3ccccc3)nn2)cc1`, the inhibition stood at 61%. On to `COc1ccc(-n2cc(-c3ccc(C(=O)Nc4cc(-c5cccs5)ccc4N)cc3)nn2)cc1`, for which the inhibition stood at 0%. With `Nc1ccc(-c2ccc(F)cc2)cc1NC(=O)c1cn(CCc2cccc(C(F)(F)F)c2)nn1`, the inhibition was 0%. On to `COc1ccc(CCn2cc(C(=O)Nc3cc(-c4ccc(F)cc4)ccc3N)nn2)cc1`, for which the inhibition came to 16%. As to `Cc1cccc(C)c1NC(=O)Cn1cc(CCC(=O)Nc2cc(-c3ccccc3)ccc2N)nn1`, the inhibition was 19%. As for `Nc1ccc(-c2cccs2)cc1NC(=O)c1ccc(-c2cn(CCc3ccc(C(F)(F)F)cc3)nn2)s1`, the inhibition was found to be 0%. `Nc1ccc(-c2ccc(F)cc2)cc1NC(=O)CCc1cn(Cc2nc3ccccc3[nH]2)nn1`: the inhibition is 32%. The figure for `Nc1ccc(-c2ccsc2)cc1NC(=O)CCc1cn(CS(=O)(=O)c2ccccc2)nn1` is 14%. `Nc1ccc(-c2cccnc2)cc1NC(=O)CCc1cn(CCc2ccc(C(F)(F)F)cc2)nn1`: the inhibition amounted to 0%. The figure for `Nc1ccc(-c2ccc(F)cc2)cc1NC(=O)CCc1cn(CCC2CCCCC2)nn1` is 2%; for `Nc1ccc(-c2ccc(F)cc2)cc1NC(=O)CCc1cn(CCc2ccsc2)nn1` it is 16%; for `Nc1ccc(-c2ccccc2)cc1NC(=O)CCc1cn(CCc2ccccc2C(F)(F)F)nn1` it is 0%. For `Nc1ccc(-c2cccs2)cc1NC(=O)CCc1cn(CCc2ccccn2)nn1`, the inhibition was determined as 7%. For the molecule `Nc1ccc(-c2cccs2)cc1NC(=O)c1cccc(-c2cn(CCc3ccc([N+](=O)[O-])cc3)nn2)c1`, the inhibition turned out to be 1%.

For the molecule `Nc1ccc(-c2cccs2)cc1NC(=O)c1ccc(-c2cn(CC34CC5CC(CC(C5)C3)C4)nn2)cc1`, the inhibition came to 0%. Consider `Nc1ccc(-c2ccccc2)cc1NC(=O)c1cn(CCc2cccc([N+](=O)[O-])c2)nn1`, for which the inhibition is 0%. Turning to `Cc1csc(CCn2cc(C(=O)Nc3cc(-c4ccsc4)ccc3N)nn2)n1`, the inhibition amounted to 12%.

For the origin of these results see ChEMBL document CHEMBL5390237, “Discovery of Selective Histone Deacetylase 1 and 2 Inhibitors: Screening of a Focused Library Constructed by Click Chemistry, Kinetic Binding Analysis, and Biological Evaluation” (J Med Chem, 2023).
